Test results as given in article PMC10469688, “Comparative pharmacokinetics and safety evaluation of high dosage regimens of Andrographis paniculata aqueous extract after single and multiple oral administration in healthy participants” (Frontiers in Pharmacology, 2023).
Read-outs that look alike come from different tables or passages of the source.

Tests used:
[1] = Plasma pharmacokinetics after single and multiple oral administration of A. paniculata aqueous extract capsules in healthy participants (HPLC-MS/MS, non-compartmental analysis); assay type: in vivo, human; details: for CL/F / AUC(0-t) / MRT / Vd/F / half-life / Tmax / AUC(0-inf) / Cmax: human; for CL/F / AUC(0-t) / MRT / Vd/F / half-life / Tmax / AUC(0-inf): plasma; for MRT: read-out: MRT; for Vd/F: read-out: Vd/F; for Tmax: read-out: Tmax; for AUC(0-inf): read-out: AUC(0-inf); for Cmax: read-out: Cmax
Experimental: (§1) An opened-label, two-dosage, single- and multiple-oral dosing, single center, phase I safety and pharmacokinetic study was conducted in healthy participants while they were under a fasting condition. […] Two weeks prior to the beginning of the clinical study, the volunteers were advised to abstain from other dietary supplements, herbal products, or any concomitant medicines. During the period of the study, no other medications were allowed. All participants fasted overnight for at least 8 h before drug administration. The study conducted a single-dose investigation on day 1 by oral administering A. paniculata extract capsules once in both groups. Twelve participants in group 1 received 3 capsules orally (equivalent to 60 mg of andrographolide) with 240 mL of water, while another twelve participants in group 2 received 6 capsules (equivalent to 120 mg of andrographolide). This was followed by serial blood sampling for up to 24 h after dosing. For blood collection, 6 mL of venous blood in EDTA tube was collected via a forearm vein catheter at each time point including pre-dose (0 h), and post-dose after oral administration (T 0.167, 0.333, 0.5, 0.75, 1, 1.5, 2, 4, 6, 8, 10, 12 and 24 h). Subsequently, observation of elimination continued until 48 h post-dose to ensure complete excretion of the major active diterpenoids through urine. Urine samples were collected at day 0 (the day prior to dosing) and day 1–2 (T 0–4, 4–8, 8–12,12–24, 24–32, 32–40, and 40–48 h after dosing). The study then proceeded to investigate multiple doses in both groups by administering continuous oral doses from day 3 until the morning of day 5. (dosing at T48, 56, 64, 72, 80, 88, and 96 h). In group 1, three capsules were administered orally before meals, three times a day (3 × 3 capsules at 8-h intervals, calculated as 180 mg/day of andrographolide); whereas in group 2, six capsules were administered daily, three times a day (6 × 3 capsules at 8-h intervals, calculated as 360 mg/day of andrographolide). For serial blood sampling of multiple doses, 6 mL of blood samples were collected starting in the morning of day 5 (sampling timepoints T 96, 96.167, 96.333, 96.5, 96.75, 97, 97.5, 98, 100, 102, and 104 h post dose).
(§2) All collected blood samples were centrifuged at 4,000 rpm, 4^οC, for 5 min. Plasma was collected and stored in cryotubes at −70^οC until analysis. Urine was kept as 10 mL aliquot samples at each time point and stored at −70^οC until analysis. Extraction was performed by protein precipitation method as previously reported ([Songvut et al., 2023]). Briefly, 50 µL of either a plasma or urine sample was mixed with 200 µL of methanol containing an internal standard (IS) of digoxin (50 ng/mL). Pretreated samples were vortexed for 10 min and were then centrifuged at 12,000 rpm, 4°C, for 10 min. The supernatants were filtered through a 0.2 µm PVDF membrane and were subsequently transferred to vials for HPLC-MS/MS analysis.
(§3) Hydrolysis of the glucuronidated and sulfated conjugates was conducted by enzymatic incubation as our previous published method ([Songvut et al., 2023]). To analyze the metabolic conjugations, 50 μL of either a plasma or urine sample was pre-incubated at 37^οC with 50 µL of either of β-glucuronidase in sodium phosphate buffer (pH 6.8) for 30 min, or sulfatase in sodium acetate buffer (pH 5) for 2 h. IS (50 ng/mL) was then added along with 150 μL of methanol to precipitate protein. The extracted samples were then vortexed and centrifuged at 12,000 rpm, 4^οC, for 10 min. The supernatants were collected by filtering through a 0.2-µm PVDF membrane before HPLC-MS/MS injection.
(§4) Analysis for the concentrations of targeted compounds in plasma and urine samples were carried out using HPLC-MS/MS at the Laboratory of Pharmacology, Chulabhorn Research Institute, Bangkok, Thailand. The quantitative determination was performed according to a previously validated method ([Songvut et al., 2023]). […]

[2] = Cumulative urinary excretion after single oral administration of A. paniculata aqueous extract capsules in healthy participants; assay type: in vivo, human; details: for Cumulative urine: urine T 0–48 h
Experimental: as §1, §2, §3, §4

[3] = parameters: method as in Panossian et al., 2000; details: previous pharmacokinetic studies; ref Panossian et al., 2000; cited from earlier work
[4] = multiple oral doses 60 mg × 3 times/day of andrographolide, n = 12, mean ± SD
[5] = multiple oral doses 60 mg × 3 times/day of andrographolide, n = 12, mean ± SD, read-out: AUC(0–8h)
[6] = multiple oral doses 60 mg × 3 times/day of andrographolide, n = 12, median [IQR]
[7] = multiple oral doses 120 mg × 3 times/day of andrographolide, n = 11, mean ± SD
[8] = multiple oral doses 120 mg × 3 times/day of andrographolide, n = 11, mean ± SD, read-out: AUC(0–8h)
[9] = multiple oral doses 120 mg × 3 times/day of andrographolide, n = 11, median [IQR]
[10] = single oral dose equivalent to 60 mg andrographolide, n = 12, mean ± SD
[11] = single oral dose equivalent to 60 mg andrographolide, n = 12, mean ± SD, read-out: AUC(0–24h)
[12] = single oral dose equivalent to 60 mg andrographolide, n = 12, median [IQR]
[13] = single oral dose equivalent to 120 mg andrographolide, n = 11, mean ± SD
[14] = single oral dose equivalent to 120 mg andrographolide, n = 11, mean ± SD, read-out: AUC(0–24h)
[15] = single oral dose equivalent to 120 mg andrographolide, n = 11, median [IQR]
[16] = multiple oral doses 60 mg × 3 times/day of andrographolide, plasma T 0–8 h, n = 12, mean ± SD
[17] = multiple oral doses 120 mg × 3 times/day of andrographolide, plasma T 0–8 h, n = 11, mean ± SD
[18] = single oral dose equivalent to 60 mg andrographolide, plasma T 0–24 h, n = 12, mean ± SD
[19] = single oral dose equivalent to 120 mg andrographolide, plasma T 0–24 h, n = 11, mean ± SD

SMILES: C=C1CC[C@@H]2[C@](C)(CO)[C@H](O)CC[C@@]2(C)[C@@H]1C/C=C1/C(=O)OC[C@H]1O [Andrographolide, andrographolide]
- CL/F [1, 4]: 75 mL/min/kg
- AUC(0-t) [1, 5]: 195 ± 24 ng·h/mL
- MRT [1, 4]: 4.3 ± 0.99 h
- Vd/F [1, 4]: 18 ± 8 L/kg
- half-life [1, 6]: 2.3 h
- Tmax [1, 6]: 0.65 h
- CL/F [1, 7]: 91.7 mL/min/kg
- AUC(0-t) [1, 8]: 345 ± 48.8 ng·h/mL
- MRT [1, 7]: 3.4 ± 0.45 h
- Vd/F [1, 7]: 14.7 ± 3.7 L/kg
- half-life [1, 9]: 1.7 h
- Tmax [1, 9]: 0.8 h
- CL/F [1, 10]: 81.7 mL/min/kg
- AUC(0-inf) [1, 10]: 210 ± 25.4 ng·h/mL
- AUC(0-t) [1, 11]: 210 ± 25.4 ng·h/mL
- MRT [1, 10]: 6 ± 0.45 h
- Vd/F [1, 10]: 9 ± 1.66 L/kg
- half-life [1, 12]: 1.3 h
- Tmax [1, 12]: 0.8 h
- CL/F [1, 13]: 100 mL/min/kg
- AUC(0-inf) [1, 13]: 345 ± 63.5 ng·h/mL
- AUC(0-t) [1, 14]: 345 ± 63.5 ng·h/mL
- MRT [1, 13]: 5.3 ± 0.63 h
- Vd/F [1, 13]: 10.8 ± 1.6 L/kg
- half-life [1, 15]: 1.2 h
- Tmax [1, 15]: 0.8 h
- Cmax [1, 16]: 85.9 ± 19 ng/mL
- Cmax [1, 17]: 172 ± 54.4 ng/mL
- Cmax [1, 18]: 72.1 ± 28.7 ng/mL
- Cmax [1, 19]: 112 ± 33.4 ng/mL
- Amount excreted in urine on doubling the oral dose ([2]; 60 vs 120 mg of andrographolide): nearly corresponding doubling
- Cumulative urine [2, 10]: 372 ± 159 µg
- Cumulative urine [2, 13]: 1,193±553 μg
- Tmax [3]: 1.36 h

SMILES: C=C1CC[C@@H]2[C@](C)(CO[C@@H]3O[C@H](CO)[C@@H](O)[C@H](O)[C@H]3O)CCC[C@@]2(C)[C@@H]1CCC1=CCOC1=O [Neoandrographolide, neoandrographolide]
- Detectability as conjugated metabolites in plasma ([1]; glucuronide and sulfate derivatives): less detectable
- CL/F [1, 4]: 65 mL/min/kg
- AUC(0-inf) [1, 4]: 69.7 ± 12.9 ng·h/mL
- AUC(0-t) [1, 5]: 69.7 ± 12.9 ng·h/mL
- MRT [1, 4]: 1.7 ± 0.22 h
- Vd/F [1, 4]: 3.4 ± 0.78 L/kg
- half-life [1, 6]: 0.6 h
- Tmax [1, 6]: 1 h
- CL/F [1, 7]: 71.7 mL/min/kg
- AUC(0-inf) [1, 7]: 128 ± 29.1 ng·h/mL
- AUC(0-t) [1, 8]: 128 ± 29.1 ng·h/mL
- MRT [1, 7]: 1.9 ± 0.18 h
- Vd/F [1, 7]: 1.2 ± 0.29 L/kg
- half-life [1, 9]: 0.19 h
- Tmax [1, 9]: 1 h
- CL/F [1, 10]: 36.7 mL/min/kg
- AUC(0-inf) [1, 10]: 41 ± 4.9 ng·h/mL
- AUC(0-t) [1, 11]: 41 ± 4.9 ng·h/mL
- MRT [1, 10]: 1.8 ± 0.33 h
- Vd/F [1, 10]: 0.74 ± 0.16 L/kg
- half-life [1, 12]: 0.23 h
- Tmax [1, 12]: 0.9 h
- CL/F [1, 13]: 88.3 mL/min/kg
- AUC(0-inf) [1, 13]: 104 ± 22.6 ng·h/mL
- AUC(0-t) [1, 14]: 104 ± 22.6 ng·h/mL
- MRT [1, 13]: 2.2 ± 0.22 h
- Vd/F [1, 13]: 1.5 ± 0.33 L/kg
- half-life [1, 15]: 0.19 h
- Tmax [1, 15]: 0.8 h
- Cmax [1, 16]: 34.8 ± 6.3 ng/mL
- Cmax [1, 17]: 60.7 ± 12.2 ng/mL
- Cmax [1, 18]: 24.4 ± 5.6 ng/mL
- Cmax [1, 19]: 50.4 ± 19.2 ng/mL
- Cumulative urine [2, 10]: 24.0 ± 18.1 µg
- Cumulative urine [2, 13]: 66.7 ± 29.3 µg
